Reference: US20210338557A1, “Oxidized Derivatives of GDF-11 Fragments” (Avon Products, Inc., priority 2019, published 2021)
Where a SMILES comes first, the peptide text is derived from it. [ ]: non-standard residue; d: D form. Met(O2) = CS(=O)(=O)CC[CH](N)C(=O)O; Met(O) = CS(=O)CC[CH](N)C(=O)O

Tests used:
explanted skin tissue [1] = experiment: Ex vivo skin explant collagen score (papillary dermis, image analysis); format: cell-based, human; conditions: for Collagen score, Mean: days 0, 1, 2, 5, 7
Procedure: (§1) Samples of explanted skin tissue were obtained from an abdominal plasty. Samples (33 in total) were maintained in tissue culture medium at 37° C. in a humid, 5% CO2 atmosphere for the duration of the study.
(§2) The skin tissue explants were then distributed into appropriate controls or treated samples in triplicates. The control received only a vehicle (DMSO), and the treatment samples received vehicle comprising either M(O)2VV or Ac-M(O)2VV at 0.0005%, 0.001%, or 0.01% by weight of the composition. Administration of vehicle or vehicle with the peptide occurred on days 0, 1, 2, 5, and 7.
(§3) Stained tissue sections (in triplicates) were examined for qualitative and semi-qualitative differences between treated and control samples and low and high power using Zeiss Mimax and Midi BF microscope and software system. For HA evaluation, samples were washed and processed with Methylthiazolyldiphenyl-tetrazolium bromide (MTT). MTT is converted to water-insoluble dark blue colored MTT-formazan by mitochondrial dehydrogenases. Subsequently the blue crystals have been solubilized and the color intensity, that is directly proportional to skin vitality, has been measured with a plate reader at a wavelength of 570 nm. For each analyzed skin sample the obtained absorbance value has been normalized upon the weight in grams. Twelve skin suctions were stained with an acian blue stain that dyes acid mucins such as hyaluronan to develop the HA score. Dermal collagen was also measured using a picrosirius red histochemical stain that dyes collagen fibers in purple-red. The papillary dermis was selected for the analysis as thi sis the portion of the dermis more subjected to collagen variation in response to treatment.
(§4) 8-bit grey-scale photomicrographs were captured and transformed from RGB to the standard CIE L*a*b* color space. The L* value for each pixel in the ROI was evaluated using ImageJ software (National Institutes of Health, Bethesda, Md.) with the Color Inspector 3D plug-in. The amount of hyaluron present was evaluated based on the intensity and distribution of blue color in the dermis using an imaging method analogous to that used for procollagen I. Scores reflecting the amount of hyaluronan detected were assigned using an image analysis algorithm proprietary to Cutech Srl. Higher HA scores is indicative of a higher HA content. Similarly, the amount of procollagen I was evaluated based on the intensity and distribution of immunostained procollagen I in the area corresponding to the papillary dermis, just below the epidermis. As above, 8-bit grey-scale photomicrographs were captured and transformed from RGB to the standard CIE L*a*b* color space. The L* value for each pixel in the ROI was evaluated using ImageJ software (National Institutes of Health, Bethesda, Md.) with the Color Inspector 3D plug-in. Scores reflecting the amount of procollagen I detected were assigned using an image analysis algorithm proprietary to Cutech Srl.
Columns marked with “**” were highly significant (p<0.05) with respect to untreated samples and with respect to samples administered vehicle alone (DMSO.

[2] = system: Human dermal fibroblast cells; experiment: Hyaluronic acid (HA) secretion by human dermal fibroblasts, HTRF HABP kit; format: cell-based; conditions: 48 h, relative to vehicle control
Procedure: (§5) Human dermal fibroblast cells were grown in a 96 well plate in DMEM media (available from Corning, N.Y.) supplemented with 10% Fetal Bovine Serum (FBS) and L-glutamine (0.07×10^5 cells/plate). After reaching about 75% confluence, cells were transferred into DMEM media without FBS and incubated for 4-6 hours. Next, cells were treated with a peptide or prodrug thereof (MVV, Ac-MVV) or peptide derivative or prodrug thereof (M(O)2VV, Ac-M(O)2VV, Ac-M(O)VV) at 0.00001%, 0.0001%, 0.0005%, or 0.001% final concentration in DMEM media without FBS for 48 h. After treatment, the media were collected and cell viability was measured using MTT. The amount of collagen or hyaluronic acid (HA) secreted was tested in the media using an HTRF human pro-collagen I kit or an HTRF HABP kit, respectively (each available from Cisbio Inc., Bedford, Mass.).
(§6) The results for HA production following administration to the fibroblasts are summarized in Table 13 as percent change of HA production for each active relative to vehicle control. p values are given with respect to the change in HA on the fibroblasts with vehicle control administration or with respect to MWV administration.

[3] = system: Human 3D skin EFT400FT tissues; experiment: HA production in full thickness 3D skin cultures, HTRF HABP kit; format: cell-based; conditions: topical daily for 3 days, n=6
Procedure: A series of experiments was conducted to assess the effects of peptide derivatives on the production of hyaluronic acid (HA) on full thickness 3D skin cultures. Five different treatment regimens were assessed: (1) 0.01% by weight M(O)2VV in vehicle; (2) 0.002% by weight M(O)2VV in vehicle; (3) 0.01% by weight Ac-M(O)2VV in vehicle; (4) 0.002% by weight Ac-M(O)2VV in vehicle; and (5) vehicle alone (DMSO). Compositions at the indicated weight percentages in DMSO were applied to 3D skin equivalents daily for 3 consecutive days.
Human 3D skin EFT400FT tissues (MatTek, MA) were cultured following the manufacturer's instructions. Each treatment regimen was topically applied to six 3D skin samples. Different 3D skin samples were assigned to one of treatment regimens (1)-(5) as described above, with six skin tissue models allocated to each treatment regimen (i.e., n=6). Following treatment, media were collected and the amount of hyaluronic acid secreted from the cells was measured using a HTRF HABP kit (available from Cisbio Inc., Bedford, Mass.).
The results for HA production are shown in Table 15. p values are given in relation to administration with vehicle control alone or in relation to MVV.

[4] = system: Human dermal fibroblast cells; experiment: Collagen (pro-collagen I) secretion by human dermal fibroblasts, HTRF human pro-collagen I kit; format: cell-based; conditions: 48 h, relative to vehicle control
Procedure: as §5
as §6, with “collagen” for “HA”, “14” for “13”, “MVV” for “with respect to MWV”

explanted skin tissue [5] = experiment: Ex vivo skin explant HA score (alcian blue stain, image analysis); format: cell-based, human; conditions: for HA score, Mean: days 0, 1, 2, 5, 7
Procedure: as §1, §2, §3, §4
Columns marked with “**” were highly significant (p<0.05) with respect to untreated samples and with respect to samples administered vehicle alone (DMSO).

Compound	Collagen score % Change Over DMSO (explanted skin tissue [1]; 5 ppm) [%]	Collagen score % Change Over Untreated (explanted skin tissue [1]; 5 ppm) [%]	Collagen score, Mean (explanted skin tissue [1]; 5 ppm in DMSO)	Collagen score % Change Over DMSO (explanted skin tissue [1]; 10 ppm) [%]	Collagen score % Change Over Untreated (explanted skin tissue [1]; 10 ppm) [%]	Collagen score, Mean (explanted skin tissue [1]; 10 ppm in DMSO)	Collagen score % Change Over DMSO (explanted skin tissue [1]; 100 ppm) [%]	Collagen score % Change Over Untreated (explanted skin tissue [1]; 100 ppm) [%]	Collagen score, Mean (explanted skin tissue [1]; 100 ppm in DMSO)	HA % change ([2]; 0.00001 wt %) [%]	HA % change ([2]; 0.0001 wt %) [%]	HA % change ([2]; 0.0005 wt %) [%]	HA % change ([2]; 0.001 wt %) [%]	% HA change ([3]; 0.002% (20 ppm) in DMSO) [%]	% HA change ([3]; 0.01% (100 ppm) in DMSO) [%]	Collagen % change ([4]; 0.00001 wt %) [%]	Collagen % change ([4]; 0.0001 wt %) [%]	Collagen % change ([4]; 0.0005 wt %) [%]	Collagen % change ([4]; 0.001 wt %) [%]	HA score % Change Over DMSO (explanted skin tissue [5]; 5 ppm) [%]	other results
CC(=O)NC(CCS(C)(=O)=O)C(=O)NC(C(=O)NC(C(=O)O)C(C)C)C(C)C (stereo not drawn) [Ac-M(O)2VV] (Ac-[Met(O2)]-Val-Val-OH; configuration not given here)	73	57	61.7	75	59	61.9	52	35	59.6	10.33	7.31	7.90	11.04	1.386	12.47	12.29	11.29	−0.56	13.65	−7	HA score % Change Over Untreated (explanted skin tissue [5]; 5 ppm): −4%; HA score, Mean (explanted skin tissue [5]; 5 ppm in DMSO): 9.5; HA score % Change Over DMSO (explanted skin tissue [5]; 10 ppm): 25%; HA score % Change Over Untreated (explanted skin tissue [5]; 10 ppm): 28%; HA score, Mean (explanted skin tissue [5]; 10 ppm in DMSO): 12.7; HA score % Change Over DMSO (explanted skin tissue [5]; 100 ppm): 9%; HA score % Change Over Untreated (explanted skin tissue [5]; 100 ppm): 12%; HA score, Mean (explanted skin tissue [5]; 100 ppm in DMSO): 11.1
CC(=O)NC(CC[S+](C)[O-])C(=O)NC(C(=O)NC(C(=O)O)C(C)C)C(C)C (stereo not drawn) [Ac-M(O)VV] (Ac-[Met(O)]-Val-Val-OH; configuration not given here)	–	–	–	–	–	–	–	–	–	17.50	16.95	17.69	21.87	–	–	7.20	4.59	14.02	13.49	–	–
CC(C)C(NC(=O)C(NC(=O)C(N)CCS(C)(=O)=O)C(C)C)C(=O)O (stereo not drawn) [M(O)2VV, methionine sulfone valine valine] (H-[Met(O2)]-Val-Val-OH; configuration not given here)	−7	−25	53.6	35	18	57.9	13	−5	55.6	14.01	17.49	10.25	19.43	6.236	10.28	5.74	12.51	1.56	6.07	18	HA score % Change Over Untreated (explanted skin tissue [5]; 5 ppm): 21%; HA score, Mean (explanted skin tissue [5]; 5 ppm in DMSO): 12; HA score % Change Over DMSO (explanted skin tissue [5]; 10 ppm): 14%; HA score % Change Over Untreated (explanted skin tissue [5]; 10 ppm): 17%; HA score, Mean (explanted skin tissue [5]; 10 ppm in DMSO): 11.6; HA score % Change Over DMSO (explanted skin tissue [5]; 100 ppm): −4%; HA score % Change Over Untreated (explanted skin tissue [5]; 100 ppm): −1%; HA score, Mean (explanted skin tissue [5]; 100 ppm in DMSO): 9.8
MVV (listed as Homo sapiens) [MW, reference compound]	–	–	–	–	–	–	–	–	–	5.79	1.63	3.66	9.00	–	–	7.22	10.56	31.22	6.22	–	–
